The text below walks through data of US9510594B2, “Use of SDHI fungicides on conventionally bred ASR-tolerant, stem canker resistant and/or frog-eye leaf spot resistant soybean varieties” (BAYER INTELLECTUAL PROPERTY GMBH, priority 2011, dated 2016).

This assay deals with Phakopsora pachyrhizi. Kind of assay: Soybean rust greenhouse test: preventive spray of young soybean plants, ABBOTT % efficacy, Colby comparison. The assay is classed as in vivo. The following applies: for Efficacy: fungicide alone, susceptible soybean variety (Miyagishirome), evaluated 11 days after inoculation. As to the method: One susceptible (Miyagishirome) and soybean varieties tolerant to soybean rust (Phakospora pachyrhizi) (TMG 801 and TMG 803) were cultivated in greenhouse up to 1.5-leaf stage. A suitable preparation of SDHI fungicide was produced by mixing 1 part per weight of the SDHI ingredient with 28.5 parts by weight of acetone as solvent and 1.5 parts by weight of polyoxyethylene alkyl phenyl ether as emulsifier. The concentrate was diluted with water to the desired concentrations.
Young plants of the susceptible and tolerant soybean varieties were sprayed with the preparation of the SDHI fungicide at the stated rate of application to evaluate the activity in controlling Phakopsora pachyrhizi.
One day after spraying, soybean plants were inoculated with an aqueous spore suspension of the causal agent of soybean rust (Phakopsora pachyrhizi). Plants were then placed in a greenhouse at approximately 20 ° C. and a relative atmospheric humidity of approximately 80%. The following trial schedule was applied:
Plants were evaluated 11 days after inoculation. The percentage of infected leaf area was determined visually. The results were calculated according to ABBOTT (% efficacy). 0% means an efficacy which corresponds to that of the control, while an efficacy of 100% means that no disease was observed.
The expected efficiencies for the SDHI fungicide and ASR-tolerant variety combinations were determined according to Colby's formula and compared to the observed efficiencies (Colby, S. R. (1967) Calculating synergistic and antagonistic responses of herbicide combinations, Weeds, 15: 20-22): E=x+y−xy/100
Wherein E is the expected efficacy as a percent of the check when using the combination of a fungicide and ASR-tolerant variety; x is the efficacy of the percent check when using the fungicide; y is the efficacy of the percent check when using the ASR-tolerant variety.
By Comparison of the expected efficacy and the observed efficacy, the synergistic effect can be discerned. If the observed percent efficacy is higher than the calculated expected percent efficacy there is a synergistic effect.

Setting [1] is: fungicide + tolerant soybean variety TMG 803, 0.2 ppm a.i.
Setting [2] is: fungicide + tolerant soybean variety TMG 803, 1 ppm a.i.
Where [3] appears, read: fungicide + tolerant soybean variety TMG 803, 5 ppm a.i.
Where [4] appears, read: fungicide + tolerant soybean variety TMG 803, 10 ppm a.i.
The mark [5] stands for this setting: fungicide + tolerant soybean variety TMG 803, 25 ppm a.i.
Where [6] appears, read: fungicide + tolerant soybean variety TMG 803, 50 ppm a.i.
Where [7] appears, read: fungicide + tolerant soybean variety TMG 803, 100 ppm a.i.
Setting [8] is: fungicide + tolerant soybean variety TMG 801, 0.2 ppm a.i.
Setting [9] is: fungicide + tolerant soybean variety TMG 801, 1 ppm a.i.
The mark [10] stands for this setting: fungicide + tolerant soybean variety TMG 801, 5 ppm a.i.
[11] abbreviates: fungicide + tolerant soybean variety TMG 801, 10 ppm a.i.
The mark [12] stands for this setting: fungicide + tolerant soybean variety TMG 801, 25 ppm a.i.
[13] abbreviates: fungicide + tolerant soybean variety TMG 801, 50 ppm a.i.

For `Cn1cc(C(=O)Nc2ccc(F)cc2-c2ccc(Cl)c(Cl)c2)c(C(F)F)n1` [Bixafen, N-(3′,4′-dichloro-5-fluoro-1,1′-biphenyl-2-yl)-3-(difluoromethyl)-1-methyl-1H-pyrazole-4-carboxamide], the synergistic effect entry (applied to TMG 803, concentrations from 100 ppm a.i. to 25 ppm a.i.) is on record as “highest synergistic effect”. In addition, the Actual efficacy by setting is: under setting [1], 60%; under setting [2], 70%; under setting [3], 75%; under setting [4], 80%; under setting [5], 96%; under setting [6], 98%. Moreover, the Actual efficacy under setting [7] was determined as 99%. Moreover, the “Expected value, calculated using Colby's formula” value (“Expected value, calculated” for short) by setting is: under setting [1], 55%; under setting [2], 58%; under setting [3], 64%; under setting [4], 73%; under setting [5], 80%; under setting [6], 82%. The “Expected value, calculated” value under setting [7] is reported as 78%. Moreover, the Efficacy reads like this: (0.2 ppm a.i.) 0%; (1 ppm a.i.) 7%; (5 ppm a.i.) 20%; (10 ppm a.i.) 40%; (25 ppm a.i.) 55%; (50 ppm a.i.) 60%. Further, where the note is “100 ppm a.i.”, the Efficacy is listed as 50%.
Take `Cn1cc(C(=O)Nc2ccccc2-c2cc(F)c(F)c(F)c2)c(C(F)F)n1` [Fluxapyroxad, 3-(difluoromethyl)-1-methyl-N-(3′,4′,5′-trifluorobiphenyl-2-yl)-1H-pyrazole-4-carboxamide]: the synergistic effect entry (1 ppm a.i. applied to TMG 803, compared over all fungicides and rates) was “most pronounced synergistic effect”. Besides, the Actual efficacy under setting [1] stood at 30%; the Actual efficacy under setting [2] amounted to 65%; the Actual efficacy under setting [3] worked out at 70%; the Actual efficacy under setting [4] stood at 80%; the Actual efficacy under setting [5] was 97%. For the same molecule, the “Expected value, calculated” value runs as follows: under setting [1], 20%; under setting [2], 26%; under setting [3], 68%; under setting [4], 76%; under setting [5], 98%. In addition, the Efficacy was 0% (0.2 ppm a.i.); 7% (1 ppm a.i.); 60% (5 ppm a.i.); 70% (10 ppm a.i.); 98% (25 ppm a.i.).
On to `CC(C)C1C2CCC1c1c(NC(=O)c3cn(C)nc3C(F)F)cccc12` (stereo not drawn) [Isopyrazam], for which the Actual efficacy is reported as 55% under setting [1] and 80% under setting [2]. In addition, the “Expected value, calculated” value under setting [1] is listed as 30% and the “Expected value, calculated” value under setting [2] is recorded as 65%. For the same molecule, the Efficacy (0.2 ppm a.i.) is given as 0% and the Efficacy (1 ppm a.i.) is 50%.
As to `Cc1nn(C)c(F)c1C(=O)Nc1ccccc1C(C)CC(C)C` (stereo not drawn) [Penflufen, N-[2-(1,3-dimethylbutyl)phenyl]-5-fluor-1,3-dimethyl-1H-pyrazole-4-carboxamide], the “deviation of the actual efficacy from the expected value” (10 ppm a.i., TMG 801 or TMG 803) was “highest deviations of the actual efficacy from the expected value”. Further, the Actual efficacy was 65% under setting [8]; 70% under setting [9]; 70% under setting [10]; 92% under setting [11]; 98% under setting [12]; 100% under setting [13]. Further, the Actual efficacy is given as 70% under setting [1]; 65% under setting [2]; 95% under setting [3]; 98% under setting [4]; 97% under setting [5]; 100% under setting [6]. For the same molecule, the “Expected value, calculated” value is, setting by setting: under setting [8], 50%; under setting [9], 50%; under setting [10], 60%; under setting [11], 60%; under setting [12], 78%; under setting [13], 80%. The “Expected value, calculated” value is, setting by setting: under setting [1], 50%; under setting [2], 50%; under setting [3], 60%; under setting [4], 60%; under setting [5], 78%; under setting [6], 80%. Moreover, the Efficacy worked out at 0% (0.2 ppm a.i.); 0% (1 ppm a.i.); 20% (5 ppm a.i.); 20% (10 ppm a.i.); 55% (25 ppm a.i.); 60% (50 ppm a.i.).
Regarding `Cn1cc(C(=O)Nc2ccccc2C2CC2C2CC2)c(C(F)F)n1` (stereo not drawn) [Sedaxane], under “applied to TMG 803, 0.2 ppm a.i. to 1 ppm a.i. versus 5 ppm a.i. to 25 ppm a.i.”, the synergistic effect entry was “higher synergism”. In addition, the Actual efficacy runs as follows: under setting [9], 82%; under setting [10], 90%; under setting [11], 98%; under setting [12], 99%; under setting [1], 50%; under setting [2], 60%. Also, the Actual efficacy by setting is: under setting [3], 75%; under setting [4], 95%; under setting [5], 100%. For the same molecule, the “Expected value, calculated” value by setting is: under setting [9], 65%; under setting [10], 79%; under setting [11], 90%; under setting [12], 99%; under setting [1], 30%; under setting [2], 30%. The “Expected value, calculated” value is, setting by setting: under setting [3], 58%; under setting [4], 79%; under setting [5], 99%. In addition, the Efficacy (0.2 ppm a.i.) came out at 0%; the Efficacy (1 ppm a.i.) is given as 0%; the Efficacy (5 ppm a.i.) was determined as 40%; the Efficacy (10 ppm a.i.) is listed as 70%; the Efficacy (25 ppm a.i.) is given as 98%.
